Measurements published in ChEMBL document CHEMBL4043145, “Pyridine-pyrimidine amides that prevent HGF-induced epithelial scattering by two distinct mechanisms” (Bioorg Med Chem Lett, 2017).
Activity calls are given as the source filed them. No cut-off for these calls is given here.

How the values were obtained:
MDCK-II = assay: Antimigratory activity against MDCK2 cells assessed as inhibition of HGF-induced cell scattering at 1 uM pretreated for 18 hrs followed by HGF addition measured after 20 to 24 hrs by crystal violet staining-based assay relative to control; assay type: functional; conditions: Canis lupus familiaris
[1] = Antimigratory activity against human SW.71 cells at 10 uM after 18 hrs by crystal violet staining-based assay relative to control; assay type: functional; conditions: SW.71, 18 h
A2780 [2] = assay: Cell cycle arrest in human A2780 cells assessed as accumulation at S phase at 300 nM (reference value: 21.16 to 22.81%); assay type: functional
A2780 [3] = assay: Cell cycle arrest in human A2780 cells assessed as accumulation at G1 phase at 300 nM (reference value: 55.26 to 55.66%); assay type: functional
A2780 [4] = assay: Cell cycle arrest in human A2780 cells assessed as accumulation at G2/M phase at 300 nM (reference value: 19.42 to 20.43%); assay type: functional
MCF7 [5] = assay: Cell cycle arrest in human MCF7 cells assessed as accumulation at G1 phase at 300 nM (reference value: 47.47 to 52.3%); assay type: functional
MCF7 [6] = assay: Cell cycle arrest in human MCF7 cells assessed as accumulation at S phase at 300 nM (reference value: 25.36 to 26.82%); assay type: functional
MCF7 [7] = assay: Cell cycle arrest in human MCF7 cells assessed as accumulation at G2/M phase at 300 nM (reference value: 20.06 to 22.33%); assay type: functional
PC-3 [8] = assay: Cell cycle arrest in human p53-null PC3 cells assessed as accumulation at G1 phase at 300 nM (reference value: 50.77 to 51.16%); assay type: functional
PC-3 [9] = assay: Cell cycle arrest in human p53-null PC3 cells assessed as accumulation at S phase at 300 nM (reference value: 29.08 to 29.33%); assay type: functional
PC-3 [10] = assay: Cell cycle arrest in human p53-null PC3 cells assessed as accumulation at G2/M phase at 300 nM (reference value: 18.37 to 18.96%); assay type: functional
MFE-280 [11] = assay: Cell cycle arrest in human MFE280 cells assessed as accumulation at G1 phase at 300 nM (reference value: 64.99 to 67.86%); assay type: functional
MFE-280 [12] = assay: Cell cycle arrest in human MFE280 cells assessed as accumulation at S phase at 300 nM (reference value: 14.14 to 15.66%); assay type: functional
MFE-280 [13] = assay: Cell cycle arrest in human MFE280 cells assessed as accumulation at G2/M phase at 300 nM (reference value: 16.43 to 17.9%); assay type: functional
MFE-296 [14] = assay: Cell cycle arrest in human MFE296 cells assessed as accumulation at G1 phase at 300 nM (reference value: 61.05 to 64.87%); assay type: functional
MFE-296 [15] = assay: Cell cycle arrest in human MFE296 cells assessed as accumulation at S phase at 300 nM (reference value: 16.96 to 19.19%); assay type: functional
MFE-296 [16] = assay: Cell cycle arrest in human MFE296 cells assessed as accumulation at G2/M phase at 300 nM (reference value: 15.71 to 17.04%); assay type: functional
T47D [17] = assay: Cell cycle arrest in human T47D cells assessed as accumulation at G1 phase at 300 nM (reference value: 45.5 to 57.8%); assay type: functional
T47D [18] = assay: Cell cycle arrest in human T47D cells assessed as accumulation at S phase at 300 nM (reference value: 19.89 to 24.55%); assay type: functional
T47D [19] = assay: Cell cycle arrest in human T47D cells assessed as accumulation at G2/M phase at 300 nM (reference value: 20.58 to 28.8%); assay type: functional
[20] = (§1) Inhibition of bovine brain tubulin polymerization; set-up: species or system Bos taurus
Bos taurus [21] = species on record: Bos taurus; assay: as §1
Bos taurus [22] = species on record: Bos taurus; assay: Inhibition of colchicine binding to bovine brain tubulin up to 25 uM by fluorescence based assay relative to control
[23] = Binding affinity to tubulin (unknown origin) by isothermal titration calorimetric analysis; set-up: species or system Homo sapiens
Homo sapiens = species on record: Homo sapiens; assay: Binding affinity to tubulin (unknown origin) by CD spectroscopic method

`Cc1nc(NC(=O)c2cncnc2)ccc1I` gave an inhibition at 1 µM (MDCK-II) of 249% and an inhibition at 10 µM [1] of 80%.
With `CC(=O)O[C@H]1C(=O)[C@@]2(C)[C@H]([C@H](OC(=O)c3ccccc3)[C@]3(O)C[C@H](OC(=O)[C@H](O)[C@@H](NC(=O)c4ccccc4)c4ccccc4)C(C)=C1C3(C)C)[C@]1(OC(C)=O)CO[C@@H]1C[C@@H]2O` [PACLITAXEL] the Activity (A2780 [2]) was 10.42%, the Activity (A2780 [3]) was 13.37% and the Activity (A2780 [4]) was 70.7%. For the same molecule, the Activity (MCF7 [5]) was 3.43%, the Activity (MCF7 [6]) was 7.07% and the Activity (MCF7 [7]) was 86.54%. The Activity (PC-3 [8]) was 8.25%, the Activity (PC-3 [9]) was 20.78% and the Activity (PC-3 [10]) was 70.82%. It also gave an Activity (MFE-280 [11]) of 34.74%, an Activity (MFE-280 [12]) of 22.1% and an Activity (MFE-280 [13]) of 39.59%. It also gave an Activity (MFE-296 [14]) of 26.72%, an Activity (MFE-296 [15]) of 19.73% and an Activity (MFE-296 [16]) of 51.88%. For the same molecule, the Activity (T47D [17]) was 30.62%, the Activity (T47D [18]) was 27.89% and the Activity (T47D [19]) was 41.49%.
For `Cc1ncc(C(=O)Nc2ccc(-c3cccc(S(=O)(=O)C4CC4)c3)cn2)cn1`, the IC50 [20] was 240 nM, the inhibition (Bos taurus [21]) was “Dose-dependent effect” and the inhibition (Bos taurus [22]) was 70%. For the same molecule, the Kd [23] was 190 nM and the Activity (Homo sapiens) was “Active”.
